Measurements reported in publication PMC4300089, “Structure-Guided Design of Selective Epac1 and Epac2 Agonists” (PLoS Biology, 2015).

Tests used:
Epac1 [1] = target: T1, Epac1 (Homo sapiens, UniProt O95398); test: Epac activation assay, Epac1; assay type: biochemical
T1 construct: made in house
T1 sequence (O95398 150-881 isoform O95398-3): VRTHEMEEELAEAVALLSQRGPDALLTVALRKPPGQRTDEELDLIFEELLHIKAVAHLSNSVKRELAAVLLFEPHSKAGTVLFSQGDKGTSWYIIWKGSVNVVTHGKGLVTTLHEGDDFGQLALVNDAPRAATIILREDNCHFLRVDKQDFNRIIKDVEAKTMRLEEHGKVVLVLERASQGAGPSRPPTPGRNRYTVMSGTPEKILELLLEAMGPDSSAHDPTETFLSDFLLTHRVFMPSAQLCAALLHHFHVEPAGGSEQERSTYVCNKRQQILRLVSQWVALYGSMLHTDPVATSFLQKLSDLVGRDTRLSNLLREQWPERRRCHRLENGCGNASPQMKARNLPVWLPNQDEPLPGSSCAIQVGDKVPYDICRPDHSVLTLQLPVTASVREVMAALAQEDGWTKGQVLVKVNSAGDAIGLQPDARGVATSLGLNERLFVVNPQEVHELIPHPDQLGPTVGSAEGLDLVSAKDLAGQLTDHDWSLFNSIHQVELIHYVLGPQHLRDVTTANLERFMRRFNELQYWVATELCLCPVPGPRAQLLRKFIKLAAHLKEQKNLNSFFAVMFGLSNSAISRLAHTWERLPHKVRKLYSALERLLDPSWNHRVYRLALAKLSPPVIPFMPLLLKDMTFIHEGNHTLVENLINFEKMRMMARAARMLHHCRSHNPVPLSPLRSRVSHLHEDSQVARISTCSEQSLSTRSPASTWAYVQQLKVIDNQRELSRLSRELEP

Epac2^Δ280,K450A = target: T2, Epac2^Δ280,K450A (Mus musculus, UniProt Q9EQZ6, K468A); test: Epac activation assay, Epac2 K450A mutant; assay type: biochemical
T2 construct: made in house
T2 sequence (Q9EQZ6 281-993 isoform Q9EQZ6-3 K450A): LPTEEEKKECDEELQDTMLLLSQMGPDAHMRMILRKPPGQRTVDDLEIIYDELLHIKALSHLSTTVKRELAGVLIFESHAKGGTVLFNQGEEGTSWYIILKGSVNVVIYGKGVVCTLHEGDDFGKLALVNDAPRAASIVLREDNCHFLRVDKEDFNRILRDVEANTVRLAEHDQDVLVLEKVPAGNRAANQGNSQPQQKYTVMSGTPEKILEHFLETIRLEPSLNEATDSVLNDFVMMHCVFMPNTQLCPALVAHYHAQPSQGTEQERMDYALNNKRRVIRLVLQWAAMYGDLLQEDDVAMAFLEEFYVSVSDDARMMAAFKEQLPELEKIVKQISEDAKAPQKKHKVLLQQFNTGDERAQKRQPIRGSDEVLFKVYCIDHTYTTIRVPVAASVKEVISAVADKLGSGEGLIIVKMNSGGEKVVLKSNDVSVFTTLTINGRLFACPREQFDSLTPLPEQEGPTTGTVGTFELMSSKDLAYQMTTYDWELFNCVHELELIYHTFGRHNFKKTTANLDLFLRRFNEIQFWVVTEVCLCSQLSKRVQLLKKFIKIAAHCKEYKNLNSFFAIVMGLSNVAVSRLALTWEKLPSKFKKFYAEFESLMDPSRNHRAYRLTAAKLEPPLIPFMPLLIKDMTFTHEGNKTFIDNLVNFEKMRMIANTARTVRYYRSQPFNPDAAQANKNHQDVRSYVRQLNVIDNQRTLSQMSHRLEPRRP
Protocol: Murine Epac2 was used as all previous structural studies were performed with it.
The activity of Epac was determined by a fluorescence assay. […] The fluorescence intensity of Rap1B•mGDP is approximately twice that of free mGDP, and thus, nucleotide exchange can be observed as a decay in fluorescence upon the addition of excess unlabeled GDP.

Epac1 [2] = target: T1, Epac1; set-up: method as in PMID 12888551; conditions: footnote c, see also ref 13; cited from earlier work

SMILES: Cc1ccc(CSc2nc3c(N)ncnc3n2[C@@H]2O[C@@H]3CO[P@](O)(=S)O[C@H]3[C@H]2O)cc1 [S-230, Sp-8-pMeBnT-cAMPS]
- kobs (Epac1 [1]; 0.3 μM compound): 1e-05 s⁻¹
- kobs (Epac1 [1]; 0.5 μM compound): 1e-05 s⁻¹
- kobs (Epac1 [1]; 0.8 μM compound): 1.1e-05 s⁻¹
- kobs (Epac1 [1]; 1 μM compound): 1.4e-05 s⁻¹
- kobs (Epac1 [1]; 2 μM compound): 2.1e-05 s⁻¹
- kobs (Epac1 [1]; 3 μM compound): 2.6e-05 s⁻¹
- kobs (Epac1 [1]; 4 μM compound): 3e-05 s⁻¹
- kobs (Epac1 [1]; 5 μM compound): 3.3e-05 s⁻¹
- kobs (Epac1 [1]; 6 μM compound): 3.8e-05 s⁻¹
- kobs (Epac1 [1]; 7 μM compound): 4.1e-05 s⁻¹
- kobs (Epac1 [1]; 10 μM compound): 5.6e-05 s⁻¹
- kobs (Epac1 [1]; 20 μM compound): 9.4e-05 s⁻¹
- kobs (Epac1 [1]; 30 μM compound): 0.000115 s⁻¹
- kobs (Epac1 [1]; 40 μM compound): 0.000131 s⁻¹
- kobs (Epac1 [1]; 50 μM compound): 0.000148 s⁻¹
- kobs (Epac1 [1]; 60 μM compound): 0.000156 s⁻¹
- kobs (Epac1 [1]; 70 μM compound): 0.000164 s⁻¹
- kobs (Epac1 [1]; 80 μM compound): 0.00017 s⁻¹
- kobs (Epac1 [1]; 100 μM compound): 0.000198 s⁻¹
- kobs (Epac1 [1]; 200 μM compound): 0.000232 s⁻¹
- kobs (Epac1 [1]; 400 μM compound): 0.000232 s⁻¹
- kobs (Epac1 [1]; 600 μM compound): 0.000218 s⁻¹
- kobs (Epac1 [1]; 800 μM compound): 0.000186 s⁻¹

SMILES: Nc1ncnc2c1ncn2[C@@H]1O[C@@H]2COP(=O)(O)O[C@H]2[C@H]1O [cAMP, reference compound]
- kobs (Epac2^Δ280,K450A; 0.01 μM compound): 2.72e-05 s⁻¹
- kobs (Epac2^Δ280,K450A; 0.05 μM compound): 4e-05 s⁻¹
- kobs (Epac2^Δ280,K450A; 0.08 μM compound): 5.02e-05 s⁻¹
- kobs (Epac2^Δ280,K450A; 0.1 μM compound): 5.2e-05 s⁻¹
- kobs (Epac2^Δ280,K450A; 0.2 μM compound): 8.53e-05 s⁻¹
- kobs (Epac2^Δ280,K450A; 0.3 μM compound): 0.000105 s⁻¹
- kobs (Epac2^Δ280,K450A; 0.4 μM compound): 0.000119 s⁻¹
- kobs (Epac2^Δ280,K450A; 0.5 μM compound): 0.000137 s⁻¹
- kobs (Epac2^Δ280,K450A; 0.6 μM compound): 0.000149 s⁻¹
- kobs (Epac2^Δ280,K450A; 0.7 μM compound): 0.000155 s⁻¹
- kobs (Epac2^Δ280,K450A; 0.8 μM compound): 0.000159 s⁻¹
- kobs (Epac2^Δ280,K450A; 1 μM compound): 0.000183 s⁻¹
- kobs (Epac2^Δ280,K450A; 2 μM compound): 0.000228 s⁻¹
- kobs (Epac2^Δ280,K450A; 3 μM compound): 0.000276 s⁻¹
- kobs (Epac2^Δ280,K450A; 4 μM compound): 0.000288 s⁻¹
- kobs (Epac2^Δ280,K450A; 5 μM compound): 0.000293 s⁻¹
- kobs (Epac2^Δ280,K450A; 6 μM compound): 0.0003 s⁻¹
- kobs (Epac2^Δ280,K450A; 7 μM compound): 0.000286 s⁻¹
- kobs (Epac2^Δ280,K450A; 8 μM compound): 0.0003 s⁻¹
- kobs (Epac2^Δ280,K450A; 10 μM compound): 0.000289 s⁻¹
- kobs (Epac2^Δ280,K450A; 20 μM compound): 0.000309 s⁻¹
- kobs (Epac2^Δ280,K450A; 30 μM compound): 0.000319 s⁻¹
- kobs (Epac2^Δ280,K450A; 40 μM compound): 0.000313 s⁻¹
- kobs (Epac2^Δ280,K450A; 50 μM compound): 0.000318 s⁻¹
- kobs (Epac2^Δ280,K450A; 60 μM compound): 0.00031 s⁻¹
- kobs (Epac2^Δ280,K450A; 70 μM compound): 0.000323 s⁻¹
- kobs (Epac2^Δ280,K450A; 80 μM compound): 0.000319 s⁻¹
- kobs (Epac2^Δ280,K450A; 100 μM compound): 0.000327 s⁻¹
- kobs (Epac1 [1]; 0.01 μM compound): 1.1e-05 s⁻¹
- kobs (Epac1 [1]; 0.05 μM compound): 1.4e-05 s⁻¹
- kobs (Epac1 [1]; 0.08 μM compound): 2.5e-05 s⁻¹
- kobs (Epac1 [1]; 0.1 μM compound): 2.8e-05 s⁻¹
- kobs (Epac1 [1]; 0.3 μM compound): 3e-05 s⁻¹
- kobs (Epac1 [1]; 0.5 μM compound): 3.8e-05 s⁻¹
- kobs (Epac1 [1]; 0.8 μM compound): 4.7e-05 s⁻¹
- kobs (Epac1 [1]; 1 μM compound): 5e-05 s⁻¹
- kobs (Epac1 [1]; 2 μM compound): 6.1e-05 s⁻¹
- kobs (Epac1 [1]; 3 μM compound): 9.3e-05 s⁻¹
- kobs (Epac1 [1]; 4 μM compound): 0.000116 s⁻¹
- kobs (Epac1 [1]; 5 μM compound): 0.000161 s⁻¹
- kobs (Epac1 [1]; 6 μM compound): 0.000161 s⁻¹
- kobs (Epac1 [1]; 7 μM compound): 0.000189 s⁻¹
- kobs (Epac1 [1]; 8 μM compound): 0.00021 s⁻¹
- kobs (Epac1 [1]; 10 μM compound): 0.000256 s⁻¹
- kobs (Epac1 [1]; 20 μM compound): 0.000421 s⁻¹
- kobs (Epac1 [1]; 30 μM compound): 0.000589 s⁻¹
- kobs (Epac1 [1]; 40 μM compound): 0.000692 s⁻¹
- kobs (Epac1 [1]; 50 μM compound): 0.000746 s⁻¹
- kobs (Epac1 [1]; 60 μM compound): 0.000796 s⁻¹
- kobs (Epac1 [1]; 70 μM compound): 0.000848 s⁻¹
- kobs (Epac1 [1]; 80 μM compound): 0.000859 s⁻¹
- kobs (Epac1 [1]; 100 μM compound): 0.000937 s⁻¹
- kobs (Epac1 [1]; 200 μM compound): 0.00112 s⁻¹
- kobs (Epac1 [1]; 400 μM compound): 0.0012 s⁻¹
- kobs (Epac1 [1]; 600 μM compound): 0.00116 s⁻¹
- kobs (Epac1 [1]; 800 μM compound): 0.00118 s⁻¹
- share of cAMP bound protein still in an inactive conformation (Epac1 [1]; Epac1, assuming the most efficient activators shift the equilibrium fully): about 65%

SMILES: COC1C2OP(=O)(O)OCC2OC1n1c(Sc2ccc(Cl)cc2)nc2c(N)ncnc21 [D-007, 8-pCPT-2′-O-Me-cAMP, reference compound]
- AC50 (Epac1 [2]): 1.8 µM
- kobs (Epac1 [1]; 0.01 μM compound): 4.6e-05 s⁻¹
- kobs (Epac1 [1]; 0.05 μM compound): 0.000133 s⁻¹
- kobs (Epac1 [1]; 0.08 μM compound): 0.000193 s⁻¹
- kobs (Epac1 [1]; 0.1 μM compound): 0.000213 s⁻¹
- kobs (Epac1 [1]; 0.2 μM compound): 0.000391 s⁻¹
- kobs (Epac1 [1]; 0.3 μM compound): 0.000569 s⁻¹
- kobs (Epac1 [1]; 0.4 μM compound): 0.000728 s⁻¹
- kobs (Epac1 [1]; 0.5 μM compound): 0.000822 s⁻¹
- kobs (Epac1 [1]; 0.6 μM compound): 0.000999 s⁻¹
- kobs (Epac1 [1]; 0.7 μM compound): 0.00113 s⁻¹
- kobs (Epac1 [1]; 0.8 μM compound): 0.00123 s⁻¹
- kobs (Epac1 [1]; 1 μM compound): 0.00137 s⁻¹
- kobs (Epac1 [1]; 2 μM compound): 0.00219 s⁻¹
- kobs (Epac1 [1]; 3 μM compound): 0.00266 s⁻¹
- kobs (Epac1 [1]; 4 μM compound): 0.00283 s⁻¹
- kobs (Epac1 [1]; 5 μM compound): 0.00293 s⁻¹
- kobs (Epac1 [1]; 6 μM compound): 0.00312 s⁻¹
- kobs (Epac1 [1]; 7 μM compound): 0.00321 s⁻¹
- kobs (Epac1 [1]; 8 μM compound): 0.00328 s⁻¹
- kobs (Epac1 [1]; 20 μM compound): 0.00351 s⁻¹
- kobs (Epac1 [1]; 30 μM compound): 0.00364 s⁻¹
- kobs (Epac1 [1]; 40 μM compound): 0.00378 s⁻¹
- kobs (Epac1 [1]; 50 μM compound): 0.00348 s⁻¹
- kobs (Epac1 [1]; 60 μM compound): 0.00363 s⁻¹
- kobs (Epac1 [1]; 70 μM compound): 0.0036 s⁻¹
- kobs (Epac1 [1]; 80 μM compound): 0.00359 s⁻¹
- kobs (Epac1 [1]; 100 μM compound): 0.00349 s⁻¹
- potency relative to cAMP by activation potential (times more potently than cAMP) (Epac1 [1]; Epac1): 100 times

SMILES: Nc1ncnc2c1nc(Sc1ccc(Cl)cc1)n2[C@@H]1O[C@@H]2COP(=O)(O)O[C@H]2[C@H]1O [L-026, 8-pCPT-cAMP]
- AC50 (Epac1 [2]): 0.9 µM
